Key:
Format in all cases: cell-based, mouse
P4HA3 mRNA [1] = assay: P4HA3 knockdown by siRNA in myofibroblasts isolated from the infarcted area, real-time RT-PCR; conditions: siRNA 3.125 nM, versus si Ctrl, FIG. 4
Description: (§1) The mRNA expression levels of P4HA3 etc. in the examples of the present specification were quantified as follows. The concentration of purified RNA was determined using a microspectrophotometer DS-11 (DeNovix), and reverse transcription to cDNA was performed using a High Capacity cDNA Reverse Transcription Kit (Applied Biosystems). Quantification of mRNA was performed according to the protocol of Luna Universal qPCR Master Mix (New England BioLabs), with DNA polymerase activation at 95° C. for 60 seconds, followed by 45 cycles of cDNA denaturation at 95° C. for 15 seconds and extension at 60° C. for 30 seconds. Analysis was performed by the AACt method using GAPDH as an internal standard. Mouse Cyp7al probe was purchased from Applied Biosystems. […]
(§2) Next, the inventors investigated the effect of suppressing P4HA3 mRNA expression on the mRNA expression of other fibrosis-related factors. […] The quantification of mRNA expression levels of P4HA3, etc. in myofibroblasts after siRNA treatment was performed in the same manner as in Example 2.

[2] = tested on: periostin, 1α1 collagen and 3α1 collagen mRNA expression in myofibroblasts; assay: Effect of P4HA3 knockdown on fibrosis-related factor mRNA in myofibroblasts isolated from the infarcted area, real-time RT-PCR; conditions: siRNA 3.125 nM, versus si Ctrl, FIG. 4
Description: (§3) The mRNA expression levels of P4HA3 etc. in the examples of the present specification were quantified as follows. The concentration of purified RNA was determined using a microspectrophotometer DS-11 (DeNovix), and reverse transcription to cDNA was performed using a High Capacity cDNA Reverse Transcription Kit (Applied Biosystems). Quantification of mRNA was performed according to the protocol of Luna Universal qPCR Master Mix (New England BioLabs), with DNA polymerase activation at 95° C. for 60 seconds, followed by 45 cycles of cDNA denaturation at 95° C. for 15 seconds and extension at 60° C. for 30 seconds. Analysis was performed by the AACt method using GAPDH as an internal standard. Mouse Cyp7al probe was purchased from Applied Biosystems. Primers and probes for mouse α-smooth muscle actin (α-SMA), CD68, 1α1 collagen (Col1α1), 1α2 collagen (Col1α2), 1α3 collagen (Col1α3), 6α1 collagen (Col6α1), 8α1 collagen (Co81α1), GAPDH (glyceraldehyde-3-phosphate dehydrogenase), heat shock protein 47 (Hsp47), prolyl 4-hydroxylase alphal subunit (P4HA1), prolyl 4-hydroxylase alpha2 subunit (P4HA2), and prolyl 4-hydroxylase alpha3 subunit (P4HA3) were purchased from Sigma-Aldrich.
Next, the inventors investigated the effect of suppressing P4HA3 mRNA expression on the mRNA expression of other fibrosis-related factors. Myofibroblasts from the infarcted area of myocardial infarction disease model mice were cultured as described above in Nakaya, M. et al. (2017). Briefly, 3 days after coronary artery ligation, the ventricles of treated mice were digested with PBS containing 0.1% collagenase A (Roche Diagnostics) and 0.1% trypsin (Sigma-Aldrich) at 37° C. with agitation. The cells were placed on plates containing 10% FBS/DMEM overnight, and then the medium was replaced to remove non-adherent cells. The attached cells were cultured for more than 6 days and used as myofibroblasts in the following experiments. […] The quantification of mRNA expression levels of P4HA3, etc. in myofibroblasts after siRNA treatment was performed in the same manner as in Example 2.

P4HA3 mRNA [3] = assay: siRNA treatment of myofibroblasts from carbon tetrachloride-induced fibrotic liver, P4HA3 mRNA by real-time RT-PCR; conditions: versus si Ctrl; for mRNA expression of P4HA3: myofibroblasts from transiently fibrotic liver, siRNA 3.125 nM, FIG. 9
Description: as §3
As in Example 3, the effect of suppressing P4HA3 mRNA expression on the mRNA expression of other fibrosis-related factors was examined in cultured myofibroblasts isolated from the liver 4 weeks after the start of carbon tetrachloride administration. The liver was removed from a mouse model of carbon tetrachloride (CCl4)-induced fibrotic livers and divided into small pieces. After that, the liver pieces were washed with washing buffer [25 mM HEPES/[…]/HBSS(-)], and the cell solution containing myofibroblasts was collected by shaking the liver pieces three times for 30 min at 37° C. in . . . digestion buffer [0.1% Collagenase A/15 mM HEPES/HBSS(-)]. After that, blood cell components were removed with Red Blood Cell Lysis Buffer, and the cells were suspended in 10% FBS/1% Penicillin-Streptomycin/DMEM, and then seeded on a culture plate. After 6 hr, the medium was replaced to remove non-adherent cells and debris. After that, the cells were cultured overnight in a CO2 incubator, and non-adherent cells were again removed by washing with PBS, and adherent cells were collected using Accutase. After 20 min of reaction with CD45 antibody labeled with magnetic beads, CD45-positive blood cells were removed by MACS (magnetic cell sorting) using an LS column, and CD45-negative cells were collected as myofibroblasts. After that, the purity of the isolated myofibroblasts was measured using FACS verse, and almost all of the CD45-negative cells after MACS were positive for α-SMA, a myofibroblast marker, and almost no contamination with blood cells was observed. […]

[4] = tested on: mRNA expression of fibrosis-related factors (collagens, elastin) in myofibroblasts; assay: siRNA treatment of myofibroblasts from carbon tetrachloride-induced fibrotic liver, fibrosis-related factor mRNA by real-time RT-PCR; conditions: for mRNA expression of 1α1 collagen / mRNA expression of other fibrosis-related factors: siRNA 3.125 nM, versus si Ctrl
Description: as §3
As in Example 3, the effect of suppressing P4HA3 mRNA expression on the mRNA expression of other fibrosis-related factors was examined in cultured myofibroblasts isolated from the liver 4 weeks after the start of carbon tetrachloride administration. The liver was removed from a mouse model of carbon tetrachloride (CCl4)-induced fibrotic livers and divided into small pieces. After that, the liver pieces were washed with washing buffer [25 mM HEPES/[…]/HBSS(-)], and the cell solution containing myofibroblasts was collected by shaking the liver pieces three times for 30 min at 37° C. in . . . digestion buffer [0.1% Collagenase A/15 mM HEPES/HBSS(-)]. After that, blood cell components were removed with Red Blood Cell Lysis Buffer, and the cells were suspended in 10% FBS/1% Penicillin-Streptomycin/DMEM, and then seeded on a culture plate. After 6 hr, the medium was replaced to remove non-adherent cells and debris. After that, the cells were cultured overnight in a CO2 incubator, and non-adherent cells were again removed by washing with PBS, and adherent cells were collected using Accutase. After 20 min of reaction with CD45 antibody labeled with magnetic beads, CD45-positive blood cells were removed by MACS (magnetic cell sorting) using an LS column, and CD45-negative cells were collected as myofibroblasts. After that, the purity of the isolated myofibroblasts was measured using FACS verse, and almost all of the CD45-negative cells after MACS were positive for α-SMA, a myofibroblast marker, and almost no contamination with blood cells was observed. Si P4HA3 #1 and si P4HA3 #2, ThermoFisher Scientific catalog numbers 4390771 and 4390771 (Assay ID: s115723 and s115721), were added to the myofibroblast culture at a final concentration of 3.125 nM using Lipofectamine RNAiMAX (Invitrogen). In experiments in which si P4HA3 #2 was not used, such as in Example 3, si P4HA3 #1 was used as “si P4HA3”. For siRNA control experiments, Silencer Select Negative Control no. 1 siRNA (ThermoFisher Scientific, catalog number: 4390843) was used as si Ctrl. The nucleotide sequences of the sense and antisense strands of si P4HA3 #1 are listed in the sequence listing attached hereto as SEQ ID NOs: 1 and 2, respectively. The nucleotide sequences of the sense and antisense strands of si P4HA3 #2 are listed in the sequence listing attached hereto as SEQ ID NOs: 3 and 4, respectively.
Si Hsp47 and si P4HA3 #1 from Example 7 were used as knockdown reagents for Hsp47 and P4HA3, respectively. For si Hsp47, ThermoFisher Scientific catalog number 4390771 (Assay ID: s232335) was used. Separation of cell type fractions from livers collected 4 weeks after the start of carbon tetrachloride administration was performed in the same manner as in Example 6. […]

P4HA3 mRNA [5] = assay: P4HA3 knockdown in myofibroblasts from lungs of bleomycin-administered pulmonary fibrosis model mice, real-time RT-PCR; conditions: FIG. 11-2
Description: as §1, §2
From the bleomycin-administered pulmonary fibrosis model mouse prepared in the same manner as in Example 4, the lungs were removed 7 days after bleomycin administration. […] Quantification of the mRNA expression levels of Cd68, a blood cell marker, 1α1 collagen, a fibrosis-related factor, and P4HA3 was performed in the same manner as in Example 2. […]

[6] = tested on: 1α1, 3α1 and 14α1 collagen mRNA expression in myofibroblasts; assay: Effect of P4HA3 knockdown on fibrosis-related factor mRNA in myofibroblasts from fibrotic lungs, real-time RT-PCR; conditions: myofibroblasts from pulmonary fibrosis model mice; versus si Ctrl; FIG. 11-2
Hsp47 mRNA = assay: siRNA treatment of myofibroblasts from carbon tetrachloride-induced fibrotic liver, Hsp47 mRNA by real-time RT-PCR; conditions: myofibroblasts from damaged fibrotic liver; FIG. 21-1 A
Description: as §1
As in Example 3, the effect of suppressing P4HA3 mRNA expression on the mRNA expression of other fibrosis-related factors was examined in cultured myofibroblasts isolated from the liver 4 weeks after the start of carbon tetrachloride administration. […] After that, the purity of the isolated myofibroblasts was measured using FACS verse, and almost all of the CD45-negative cells after MACS were positive for α-SMA, a myofibroblast marker, and almost no contamination with blood cells was observed. […]

[7] = myofibroblasts from transiently fibrotic liver, FIG. 9

Substance | expression of P4HA3 mRNA (P4HA3 mRNA [1]) | expression of 1α1 collagen mRNA [2] | expression of 3α1 collagen mRNA [2] | expression of periostin mRNA [2] | expression of P4HA3 gene (P4HA3 mRNA [3]; myofibroblasts from CCl4 liver fibrosis model, FIG. 25) | mRNA expression of P4HA3 (P4HA3 mRNA [3]) | effect of suppressing the mRNA expression of fibrosis-related factors, si P4HA3 compared with si Hsp47 ([4]; myofibroblasts from CCl4 fibrotic liver, 1α1, 3α1, 8α1, 14α1 collagen, FIG. 20 C to F) | effect of suppressing the mRNA expression of fibrosis-related factors, single siRNAs and combination compared ([4]; myofibroblasts from damaged fibrotic liver, 1α1, 1α2, 3α1, 8α1, 14α1 collagen, elastin, FIGS. 21-1 C, D and 21-2 A to D) | difference in mRNA expression inhibitory effect between si P4HA3 #1 and si P4HA3 #2 for 3α1 collagen and elastin [4, 7] | inhibitory activity for all mRNA expression, si P4HA3 #1 compared with si P4HA3 #2 ([4]; myofibroblasts from transiently fibrotic liver, P4HA3, collagens, elastin, FIG. 9) | mRNA expression of 1α1 collagen [4, 7] | mRNA expression of other fibrosis-related factors [4, 7] | mRNA expression level of P4HA3 reduced to (P4HA3 mRNA [5]; remaining level relative to si Ctrl) | P4HA3 mRNA expression (P4HA3 mRNA [5]; versus si Ctrl) | mRNA expression level of 1α1 collagen [6] | mRNA expression level of 3α1 collagen [6] | mRNA expression level of 14α1 collagen [6] | Hsp47 mRNA expression (Hsp47 mRNA)
si P4HA3 #1: siRNA #1 against mouse P4HA3, sense/antisense SEQ ID NOs: 1 and 2; ThermoFisher Scientific catalog 4390771, Assay ID s115723 (sense CCACGAGTATGGACAGGAATT; antisense TTCCTGTCCATACTCGTGGAT; listed as DNA, chemistry not given here) | strongly inhibited | strongly inhibited | strongly inhibited | strongly inhibited | almost completely suppressed | inhibited | stronger effect | higher effect | no significant difference | stronger inhibitory activity than si P4HA3 #2 | inhibited | inhibited | less than 5% | very strongly inhibited | reduced to a fraction of their original levels | reduced to a fraction of their original levels | reduced to a fraction of their original levels | slightly suppressed
si P4HA3 #2: siRNA #2 against mouse P4HA3, sense/antisense SEQ ID NOs: 3 and 4; ThermoFisher Scientific catalog 4390771, Assay ID s115721 (sense GCTCATAGCTCTCTACCATTT; antisense ATGGTAGAGAGCTATGAGCGG; listed as DNA, chemistry not given here) | – | – | – | – | – | inhibited | – | – | no significant difference | – | inhibited | inhibited | – | – | – | – | – | –

From patent US20250197865A1, “PHARMACEUTICAL COMPOSITION FOR TREATMENT OR PREVENTION OF FIBROTIC DISEASE” (KYUSHU UNIVERSITY, NATIONAL UNIVERSITY CORPORATION, priority 2022, published 2025)
